According to PubChem BioAssay (NCI):
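Growth conditions: 96-well plates. Treatment: test compound, 48 hours, 5 concentrations. Analysis: linear interpolation between bracketing concentrations; unreached endpoints set to highest concentration. GI50: concentration for 50% inhibition of growth. At the TGI there is no net growth.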

Key:
Assay in all cases: NCI-60 cell line screen, 48 h
HCT-116 colon = test system: HCT-116 colon
TK-10 renal = test system: TK-10 renal
SK-MEL-28 melanoma = test system: SK-MEL-28 melanoma
T-47D breast = test system: T-47D breast
A498 renal = test system: A498 renal
HCC-2998 colon = test system: HCC-2998 colon
SR leukemia = test system: SR leukemia
HS 578T breast = test system: HS 578T breast
RPMI-8226 leukemia = test system: RPMI-8226 leukemia
NCI-H226 lung = test system: NCI-H226 lung
SF-539 CNS = test system: SF-539 CNS
SK-OV-3 ovarian = test system: SK-OV-3 ovarian
BT-549 breast = test system: BT-549 breast
ACHN renal = test system: ACHN renal
EKVX NSCLC = test system: EKVX NSCLC
OVCAR-5 ovarian = test system: OVCAR-5 ovarian
K-562 leukemia = test system: K-562 leukemia
SNB-75 CNS = test system: SNB-75 CNS
MCF7 breast = test system: MCF7 breast
OVCAR-8 ovarian = test system: OVCAR-8 ovarian
SF-268 CNS = test system: SF-268 CNS
HOP-62 NSCLC = test system: HOP-62 NSCLC
CCRF-CEM leukemia = test system: CCRF-CEM leukemia
COLO 205 colon = test system: COLO 205 colon
RXF 393 renal = test system: RXF 393 renal
SNB-19 CNS = test system: SNB-19 CNS
CAKI-1 renal = test system: CAKI-1 renal
UACC-62 melanoma = test system: UACC-62 melanoma

O=C(NCc1cn(Cc2cccc(Oc3ccccc3)c2)nn1)c1cccnc1NCc1ccc(Cl)cc1
GI50 (HCT-116 colon): 3.18 µM | TGI (HCT-116 colon): 9.4 µM | GI50 (TK-10 renal): 3.7 µM | TGI (TK-10 renal): 49.1 µM | GI50 (SK-MEL-28 melanoma): 2.95 µM | TGI (SK-MEL-28 melanoma): > 100 µM | GI50 (T-47D breast): 3.2 µM | TGI (T-47D breast): 42.9 µM | GI50 (A498 renal): 2.12 µM | TGI (A498 renal): 7.95 µM | GI50 (HCC-2998 colon): 4.17 µM | TGI (HCC-2998 colon): 28.1 µM | GI50 (SR leukemia): 3.31 µM | TGI (SR leukemia): > 100 µM | GI50 (HS 578T breast): 2.72 µM | TGI (HS 578T breast): > 100 µM | GI50 (RPMI-8226 leukemia): 3.12 µM | TGI (RPMI-8226 leukemia): > 100 µM | GI50 (NCI-H226 lung): 4.23 µM | TGI (NCI-H226 lung): > 100 µM | GI50 (SF-539 CNS): 2.24 µM | TGI (SF-539 CNS): 5.17 µM | GI50 (SK-OV-3 ovarian): 3.32 µM | TGI (SK-OV-3 ovarian): 69.2 µM | GI50 (BT-549 breast): 2.72 µM | TGI (BT-549 breast): 7.63 µM | GI50 (ACHN renal): 4.03 µM | TGI (ACHN renal): > 100 µM | GI50 (EKVX NSCLC): 3.65 µM | TGI (EKVX NSCLC): > 100 µM | GI50 (OVCAR-5 ovarian): 5.62 µM | TGI (OVCAR-5 ovarian): > 100 µM | GI50 (K-562 leukemia): 3.24 µM | TGI (K-562 leukemia): > 100 µM | GI50 (SNB-75 CNS): 2.02 µM | TGI (SNB-75 CNS): 7.77 µM | GI50 (MCF7 breast): 2.99 µM | TGI (MCF7 breast): > 100 µM | GI50 (OVCAR-8 ovarian): 3.63 µM | TGI (OVCAR-8 ovarian): > 100 µM | GI50 (SF-268 CNS): 4.82 µM | TGI (SF-268 CNS): > 100 µM | GI50 (HOP-62 NSCLC): 5.69 µM | TGI (HOP-62 NSCLC): > 100 µM | GI50 (CCRF-CEM leukemia): 3.05 µM | TGI (CCRF-CEM leukemia): > 100 µM | GI50 (COLO 205 colon): 2.18 µM | TGI (COLO 205 colon): 4.04 µM | GI50 (RXF 393 renal): 2.19 µM | TGI (RXF 393 renal): 7.81 µM | GI50 (SNB-19 CNS): 3.91 µM | TGI (SNB-19 CNS): > 100 µM | GI50 (CAKI-1 renal): 4.36 µM | TGI (CAKI-1 renal): > 100 µM | GI50 (UACC-62 melanoma): 2.08 µM
